The values that follow come from PubChem BioAssay AID1845207 (Molecular Pharmacology Branch, DTP, NCI, 2023).

Values joined by “and” are separate entries in the source; they are usually repeats but may differ in a detail not shown here. Equal entries are not always repeated.

The test system of the assay is NCI-H1876 tumor spheroid viability. Put plainly: Anticancer human tumor NCI-H1876 cell line growth inhibition.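 On all read-outs here: spheroids exposed to compounds for seven days before the viability read.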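 On viability, T/C: percent of DMSO vehicle control viability so 100% = vehicle.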 The settings on record: spheroids with HUVEC and MSC; for viability, T/C: stronger effect = lower value. The method, boiled down: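 Single agents and combinations were tested on spheroids built from tumor cells plus HUVEC and hMSC, at half-log dilutions starting at or near clinical Cmax, else 10 microM; final DMSO 0.25% (v/v).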

For orientation: IC50 means the concentration at which inhibition is half-maximal. As usually defined, the viability, T/C is the ratio of treated to control.

Take `Cn1ncnc1[C@H]1c2n[nH]c(=O)c3cc(F)cc(c23)N[C@@H]1c1ccc(F)cc1` + COc1cc2c(cc1O)CCNC21CSC2c3c(OC(C)=O)c(C)c4c(c3C(COC1=O)N1C(O)C3Cc5cc(C)c(OC)c(O)c5C(C21)N3C)OCO4: the IC50 is 35.5 nM (curve of first compound, second compound 30 pM); under 9.49 nM (curve of first compound, second compound 94.9 pM); under 9.49 nM (curve of first compound, second compound 0.0003 µM); under 9.49 nM (curve of first compound, second compound 0.000949 µM); under 9.49 nM (curve of first compound, second compound 0.003 µM). For the same compound, the viability, T/C is 80.3% (second compound 30 pM, first compound 0.00949 µM); 53.5% (second compound 30 pM, first compound 0.03 µM); 28.6% (second compound 30 pM, first compound 0.0949 µM); 11.9% (second compound 30 pM, first compound 0.3 µM); 6.01% (second compound 30 pM, first compound 0.949 µM); 3.44% (second compound 30 pM, first compound 3 µM). Also, the viability, T/C (second compound 94.9 pM, first compound 0.00949 µM) was 47.9%; the viability, T/C (second compound 94.9 pM, first compound 0.03 µM) was 28.1%; the viability, T/C (second compound 94.9 pM, first compound 0.0949 µM) is 15.5%; the viability, T/C (second compound 94.9 pM, first compound 0.3 µM) was 7.46%; the viability, T/C (second compound 94.9 pM, first compound 0.949 µM) is 5.44%; the viability, T/C (second compound 94.9 pM, first compound 3 µM) was 2.76%. Moreover, the viability, T/C (second compound 0.0003 µM, first compound 0.00949 µM) is 11.8%; the viability, T/C (second compound 0.0003 µM, first compound 0.03 µM) is 7.22%; the viability, T/C (second compound 0.0003 µM, first compound 0.0949 µM) is 5.49%; the viability, T/C (second compound 0.0003 µM, first compound 0.3 µM) is 4.25%; the viability, T/C (second compound 0.0003 µM, first compound 0.949 µM) was 5.23%; the viability, T/C (second compound 0.0003 µM, first compound 3 µM) was 2.79%. Further, the viability, T/C is 2.86% (second compound 0.000949 µM, first compound 0.00949 µM); 3.01% (second compound 0.000949 µM, first compound 0.03 µM); 2.85% (second compound 0.000949 µM, first compound 0.0949 µM); 3.24% (second compound 0.000949 µM, first compound 0.3 µM); 2.36% (second compound 0.000949 µM, first compound 0.949 µM); 1.56% (second compound 0.000949 µM, first compound 3 µM). In addition, the viability, T/C (second compound 0.003 µM, first compound 0.00949 µM) was 0.64%; the viability, T/C (second compound 0.003 µM, first compound 0.03 µM) was 0.8%; the viability, T/C (second compound 0.003 µM, first compound 0.0949 µM) was 0.45%; the viability, T/C (second compound 0.003 µM, first compound 0.3 µM) is 0.68%; the viability, T/C (second compound 0.003 µM, first compound 0.949 µM) was 1.05%; the viability, T/C (second compound 0.003 µM, first compound 3 µM) was 0.79%.

As to `Cn1nnc2c(C(N)=O)ncn2c1=O`, the viability, T/C (compound 1 µM) is 95% [middle of 10 runs]; the viability, T/C (compound 3.16 µM) was 103% [middle of 10 runs]; the viability, T/C (compound 10 µM) was 99.7% [middle of 10 runs]. Also, the IC50 (compound alone, run of 11/07/2019) is > 100000 nM and 19100 nM and 92000 nM.
